Results: ChEMBL document CHEMBL3526034 (Drug Metab Dispos, 2013)

Columns and labels:
[1] = molecular target: T1, Broad substrate specificity ATP-binding cassette transporter ABCG2 (Homo sapiens, UniProt Q9UNQ0); assay: Inhibition of human BCRP; type: ADME
T1 sequence (Q9UNQ0 whole entry): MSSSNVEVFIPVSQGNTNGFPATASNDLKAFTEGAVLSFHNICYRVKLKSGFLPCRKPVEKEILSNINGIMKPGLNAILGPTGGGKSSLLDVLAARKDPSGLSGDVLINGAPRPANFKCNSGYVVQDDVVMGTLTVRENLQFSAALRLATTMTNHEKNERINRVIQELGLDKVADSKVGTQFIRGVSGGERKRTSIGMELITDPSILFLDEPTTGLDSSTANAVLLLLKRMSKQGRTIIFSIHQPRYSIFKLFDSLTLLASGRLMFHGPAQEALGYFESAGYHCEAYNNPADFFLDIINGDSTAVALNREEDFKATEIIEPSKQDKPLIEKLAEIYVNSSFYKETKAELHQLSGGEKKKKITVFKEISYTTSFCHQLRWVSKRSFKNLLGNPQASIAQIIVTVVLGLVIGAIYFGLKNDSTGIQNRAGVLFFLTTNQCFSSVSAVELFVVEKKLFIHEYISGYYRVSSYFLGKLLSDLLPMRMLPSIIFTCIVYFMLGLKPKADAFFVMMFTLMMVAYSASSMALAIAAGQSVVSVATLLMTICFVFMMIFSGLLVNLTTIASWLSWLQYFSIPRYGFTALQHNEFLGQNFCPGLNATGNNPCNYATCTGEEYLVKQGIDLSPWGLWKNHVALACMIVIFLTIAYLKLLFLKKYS

[2] = molecular target: T2, UDP-glucuronosyltransferase 1A1 (Homo sapiens, UniProt P22309); assay: Inhibition of human recombinant UGT1A1 expressed in supersomes assessed as scopoletin glucuronidation by fluorescence analysis; type: ADME
T2 sequence (P22309 whole entry): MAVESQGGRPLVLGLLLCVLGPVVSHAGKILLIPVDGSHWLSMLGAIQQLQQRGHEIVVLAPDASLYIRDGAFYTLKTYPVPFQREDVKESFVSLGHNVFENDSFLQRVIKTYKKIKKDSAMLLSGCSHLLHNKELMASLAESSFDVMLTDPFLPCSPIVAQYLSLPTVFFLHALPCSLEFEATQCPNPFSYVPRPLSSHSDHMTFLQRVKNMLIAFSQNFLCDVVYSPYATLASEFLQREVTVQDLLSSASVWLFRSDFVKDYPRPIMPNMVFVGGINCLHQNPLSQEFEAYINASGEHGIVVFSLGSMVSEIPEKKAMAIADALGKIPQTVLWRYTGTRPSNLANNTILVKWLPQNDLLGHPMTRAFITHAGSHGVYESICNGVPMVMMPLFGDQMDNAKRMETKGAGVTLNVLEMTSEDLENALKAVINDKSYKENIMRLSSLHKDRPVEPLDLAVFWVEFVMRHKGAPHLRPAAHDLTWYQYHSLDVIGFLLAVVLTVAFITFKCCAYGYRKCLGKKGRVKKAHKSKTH

[3] = molecular target: T3, BCRP (ABCG2) (Homo sapiens, UniProt Q9UNQ0); assay: Activity at human BCRP expressed in MDCK2 cells assessed as basolateral to apical mass balance at 3 uM by liquid scintillation counting analysis in presence of 3 uM P-gp and BCRP inhibitor GF120918; type: ADME, cell-based, MDCK-II; details: with GF120918 (P-gp and BCRP inhibitor), read-out: Activity
T3 sequence (Q9UNQ0 whole entry): T1 sequence (Q9UNQ0 whole entry)

[4] = molecular target: T2, UDP-glucuronosyltransferase 1A1; assay: (§1) Drug metabolism assessed as UDPGA-fortified human recombinant UGT1A1-mediated DTG glucuronide metabolite ((2S,3S,4S,5R,6S)-6-((4R,12aS)-9-(2,4-difluorobenzylcarbamoyl)-4-methyl-6,8-dioxo-3,4,6,8,12,12a-hexahydro-2H-[1,3]oxazino[3,2-d]pyrido[1,2-a]pyrazin-7-yloxy)-3,4,5-trihydroxytetrahydro-2H-pyran-2-carboxylic acid) formation at 16 uM after 120 mins by radio-HPLC analysis; type: ADME; details: recombinant enzyme
[5] = molecular target: UDP-glucuronosyltransferase 1A3 (Homo sapiens, UniProt P35503); assay: as §1, with “UGT1A3-mediated” for “UGT1A1-mediated”; type: ADME; details: recombinant enzyme
[6] = molecular target: UDP-glucuronosyltransferase 1A4 (Homo sapiens, UniProt P22310); assay: as §1, with “UGT1A4-mediated” for “UGT1A1-mediated”; type: ADME; details: recombinant enzyme
[7] = molecular target: T3, BCRP (ABCG2); assay: Activity at human BCRP expressed in MDCK2 cells assessed as basolateral to apical mass balance at 3 uM by liquid scintillation counting analysis; type: ADME, cell-based, MDCK-II; details: read-out: Activity
[8] = molecular target: Cytochrome P450 2C9 (Homo sapiens, UniProt P11712); assay: Inhibition of CYP2C9 in human liver microsomes using diclofenac as substrate preincubated for 20 mins with substrate prior to initiation of reaction with NADPH by HPLC analysis; type: ADME
[9] = In vitro passive membrane permeability across dog MDCK2 cells at 3 uM using fasted state-simulated intestinal fluid buffer at pH 7.4 on donor side and 1% human serum albumin at pH 7.4 on receiver side by liquid scintillation counting analysis; type: ADME, cell-based, Canis lupus familiaris, MDCK-II; details: MDCK, read-out: permeability
[10] = molecular target: ATP-binding cassette sub-family C member 2 (Homo sapiens, UniProt Q92887); assay: Inhibition of human MRP2 expressed in baculovirus-infected Sf9 cell membrane vesicle using [3H]estradiol 17beta-D-glucuronide as substrate preincubated with vesicles for 5 mins prior to substrate addition by liquid scintillation counting analysis
[11] = molecular target: CYP3A4 (Homo sapiens, UniProt P08684); assay: Inhibition of CYP3A4 in human liver microsomes using nifedipine as substrate at 100 uM preincubated for 20 mins with substrate prior to initiation of reaction with NADPH by HPLC analysis; type: ADME; details: probe nifedipine
[12] = molecular target: Solute carrier family 22 member 2 (Homo sapiens, UniProt O15244); assay: Inhibition of human OCT2 expressed in MDCK2 cells using [14C]metformin as substrate by liquid scintillation counting analysis; type: ADME, cell-based, MDCK-II
[13] = molecular target: CYP2B6 (Homo sapiens, UniProt P20813); assay: Inhibition of CYP2B6 in human liver microsomes using bupropion as substrate at 100 uM preincubated for 20 mins with substrate prior to initiation of reaction with NADPH by HPLC analysis; type: ADME; details: probe bupropion
[14] = molecular target: T1, Broad substrate specificity ATP-binding cassette transporter ABCG2; assay: Inhibition of BCRP (unknown origin) expressed in MDCK2 cells assessed as basolateral to apical transport of [14C]cimetidine at 100 uM after 90 mins by liquid scintillation counting analysis; type: ADME, cell-based; details: mdck-ii, 1.5 h
[15] = molecular target: T2, UDP-glucuronosyltransferase 1A1; assay: Drug metabolism in UDPGA-fortified human liver microsomes assessed as intrinsic clearance for UGT1A1-mediated DTG glucuronide M2 ((2S,3S,4S,5R,6S)-6-((4R,12aS)-9-(2,4-difluorobenzylcarbamoyl)-4-methyl-6,8-dioxo-3,4,6,8,12,12a-hexahydro-2H-[1,3]oxazino[3,2-d]pyrido[1,2-a]pyrazin-7-yloxy)-3,4,5-trihydroxytetrahydro-2H-pyran-2-carboxylic acid) formation after 120 mins measured per mg of protein by radio-HPLC analysis; type: ADME
[16] = molecular target: Solute carrier organic anion transporter family member 1B3 (Homo sapiens, UniProt Q9NPD5); assay: Inhibition of human OATP1B3 expressed in BacMam baculovirus virus infected HEK MSR2 cells using [3H]estradiol 17beta-D-glucuronide as substrate by liquid scintillation counting analysis; type: ADME, HEK293

Cytochrome P450 2C9, sequence (P11712 whole entry): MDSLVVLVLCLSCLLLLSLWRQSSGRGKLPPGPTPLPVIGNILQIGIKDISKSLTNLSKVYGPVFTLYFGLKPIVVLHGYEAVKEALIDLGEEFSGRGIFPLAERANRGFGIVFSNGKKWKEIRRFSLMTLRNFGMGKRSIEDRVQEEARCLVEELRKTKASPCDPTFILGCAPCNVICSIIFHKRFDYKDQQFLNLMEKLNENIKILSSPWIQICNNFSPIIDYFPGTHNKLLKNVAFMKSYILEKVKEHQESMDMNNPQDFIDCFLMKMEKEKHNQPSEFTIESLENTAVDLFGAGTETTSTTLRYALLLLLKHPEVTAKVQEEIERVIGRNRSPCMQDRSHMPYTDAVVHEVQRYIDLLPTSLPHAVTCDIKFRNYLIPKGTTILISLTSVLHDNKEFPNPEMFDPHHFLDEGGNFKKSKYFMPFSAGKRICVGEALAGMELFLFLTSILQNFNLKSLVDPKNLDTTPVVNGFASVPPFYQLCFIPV
Solute carrier family 22 member 2, sequence (O15244 whole entry): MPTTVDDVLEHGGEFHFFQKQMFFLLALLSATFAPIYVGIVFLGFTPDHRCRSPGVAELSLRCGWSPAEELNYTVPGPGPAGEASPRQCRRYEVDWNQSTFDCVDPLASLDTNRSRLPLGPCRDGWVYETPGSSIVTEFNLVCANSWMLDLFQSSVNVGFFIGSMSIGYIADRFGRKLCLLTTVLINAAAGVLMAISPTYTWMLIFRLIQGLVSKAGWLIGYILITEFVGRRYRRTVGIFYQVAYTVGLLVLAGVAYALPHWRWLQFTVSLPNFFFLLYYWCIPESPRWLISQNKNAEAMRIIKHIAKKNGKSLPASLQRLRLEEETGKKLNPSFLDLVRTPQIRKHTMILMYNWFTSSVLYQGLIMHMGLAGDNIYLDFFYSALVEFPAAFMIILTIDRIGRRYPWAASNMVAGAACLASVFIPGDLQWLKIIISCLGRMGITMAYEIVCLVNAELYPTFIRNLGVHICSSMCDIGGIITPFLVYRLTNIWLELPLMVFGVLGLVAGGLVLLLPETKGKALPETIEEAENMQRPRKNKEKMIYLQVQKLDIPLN
UDP-glucuronosyltransferase 1A3, sequence (P35503 whole entry): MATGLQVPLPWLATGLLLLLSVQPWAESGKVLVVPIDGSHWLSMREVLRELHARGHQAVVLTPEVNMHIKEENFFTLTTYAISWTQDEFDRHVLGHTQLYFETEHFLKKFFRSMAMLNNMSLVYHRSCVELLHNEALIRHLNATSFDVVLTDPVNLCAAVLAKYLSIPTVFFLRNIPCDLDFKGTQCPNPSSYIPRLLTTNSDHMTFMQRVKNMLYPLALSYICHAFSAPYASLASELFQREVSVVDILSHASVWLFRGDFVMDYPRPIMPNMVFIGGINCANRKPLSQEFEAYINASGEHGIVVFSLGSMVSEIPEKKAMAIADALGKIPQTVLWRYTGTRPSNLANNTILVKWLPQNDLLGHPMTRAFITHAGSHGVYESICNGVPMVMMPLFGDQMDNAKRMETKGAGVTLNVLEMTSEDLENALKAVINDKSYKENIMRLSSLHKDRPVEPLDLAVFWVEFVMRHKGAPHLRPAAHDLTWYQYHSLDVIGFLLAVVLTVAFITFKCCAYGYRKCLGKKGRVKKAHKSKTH
CYP2B6, sequence (P20813 whole entry): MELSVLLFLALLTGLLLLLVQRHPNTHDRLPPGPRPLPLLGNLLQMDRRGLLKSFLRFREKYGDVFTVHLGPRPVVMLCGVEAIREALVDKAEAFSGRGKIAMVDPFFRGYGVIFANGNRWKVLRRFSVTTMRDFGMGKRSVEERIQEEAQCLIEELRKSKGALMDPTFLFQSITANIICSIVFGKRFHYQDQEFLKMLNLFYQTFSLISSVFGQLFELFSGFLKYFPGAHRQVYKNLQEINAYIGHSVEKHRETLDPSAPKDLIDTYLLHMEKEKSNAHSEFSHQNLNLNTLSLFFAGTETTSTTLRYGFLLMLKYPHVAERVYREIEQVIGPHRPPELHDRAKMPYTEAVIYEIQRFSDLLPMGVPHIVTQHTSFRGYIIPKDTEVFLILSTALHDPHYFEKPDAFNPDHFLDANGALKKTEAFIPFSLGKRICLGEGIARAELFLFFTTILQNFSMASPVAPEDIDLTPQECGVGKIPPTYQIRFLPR
CYP3A4, sequence (P08684 whole entry): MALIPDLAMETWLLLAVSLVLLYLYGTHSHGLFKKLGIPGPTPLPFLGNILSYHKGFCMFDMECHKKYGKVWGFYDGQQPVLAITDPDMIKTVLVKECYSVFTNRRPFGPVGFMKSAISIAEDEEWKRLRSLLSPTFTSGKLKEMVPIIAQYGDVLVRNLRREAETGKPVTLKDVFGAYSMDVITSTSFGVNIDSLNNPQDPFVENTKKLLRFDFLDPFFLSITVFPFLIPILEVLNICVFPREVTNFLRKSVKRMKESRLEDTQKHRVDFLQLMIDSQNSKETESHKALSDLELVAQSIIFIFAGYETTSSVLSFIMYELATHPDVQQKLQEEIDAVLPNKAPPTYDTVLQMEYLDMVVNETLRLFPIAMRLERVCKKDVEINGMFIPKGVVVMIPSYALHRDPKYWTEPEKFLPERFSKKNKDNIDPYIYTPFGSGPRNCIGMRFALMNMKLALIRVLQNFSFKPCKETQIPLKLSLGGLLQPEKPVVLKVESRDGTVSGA
UDP-glucuronosyltransferase 1A4, sequence (P22310 whole entry): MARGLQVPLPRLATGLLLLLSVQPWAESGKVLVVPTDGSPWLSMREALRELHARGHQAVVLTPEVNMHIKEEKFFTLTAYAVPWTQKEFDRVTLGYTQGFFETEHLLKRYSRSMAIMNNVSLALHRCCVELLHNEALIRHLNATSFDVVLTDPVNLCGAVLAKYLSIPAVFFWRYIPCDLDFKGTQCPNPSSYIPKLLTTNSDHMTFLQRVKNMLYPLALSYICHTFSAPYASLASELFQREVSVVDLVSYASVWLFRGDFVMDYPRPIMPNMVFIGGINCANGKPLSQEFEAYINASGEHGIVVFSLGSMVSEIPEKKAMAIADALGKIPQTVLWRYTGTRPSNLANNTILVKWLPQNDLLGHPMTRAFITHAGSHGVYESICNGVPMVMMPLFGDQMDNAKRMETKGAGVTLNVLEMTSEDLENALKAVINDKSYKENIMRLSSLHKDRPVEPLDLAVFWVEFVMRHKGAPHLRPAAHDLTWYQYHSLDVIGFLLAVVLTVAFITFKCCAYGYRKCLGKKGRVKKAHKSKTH
ATP-binding cassette sub-family C member 2, sequence (Q92887 whole entry): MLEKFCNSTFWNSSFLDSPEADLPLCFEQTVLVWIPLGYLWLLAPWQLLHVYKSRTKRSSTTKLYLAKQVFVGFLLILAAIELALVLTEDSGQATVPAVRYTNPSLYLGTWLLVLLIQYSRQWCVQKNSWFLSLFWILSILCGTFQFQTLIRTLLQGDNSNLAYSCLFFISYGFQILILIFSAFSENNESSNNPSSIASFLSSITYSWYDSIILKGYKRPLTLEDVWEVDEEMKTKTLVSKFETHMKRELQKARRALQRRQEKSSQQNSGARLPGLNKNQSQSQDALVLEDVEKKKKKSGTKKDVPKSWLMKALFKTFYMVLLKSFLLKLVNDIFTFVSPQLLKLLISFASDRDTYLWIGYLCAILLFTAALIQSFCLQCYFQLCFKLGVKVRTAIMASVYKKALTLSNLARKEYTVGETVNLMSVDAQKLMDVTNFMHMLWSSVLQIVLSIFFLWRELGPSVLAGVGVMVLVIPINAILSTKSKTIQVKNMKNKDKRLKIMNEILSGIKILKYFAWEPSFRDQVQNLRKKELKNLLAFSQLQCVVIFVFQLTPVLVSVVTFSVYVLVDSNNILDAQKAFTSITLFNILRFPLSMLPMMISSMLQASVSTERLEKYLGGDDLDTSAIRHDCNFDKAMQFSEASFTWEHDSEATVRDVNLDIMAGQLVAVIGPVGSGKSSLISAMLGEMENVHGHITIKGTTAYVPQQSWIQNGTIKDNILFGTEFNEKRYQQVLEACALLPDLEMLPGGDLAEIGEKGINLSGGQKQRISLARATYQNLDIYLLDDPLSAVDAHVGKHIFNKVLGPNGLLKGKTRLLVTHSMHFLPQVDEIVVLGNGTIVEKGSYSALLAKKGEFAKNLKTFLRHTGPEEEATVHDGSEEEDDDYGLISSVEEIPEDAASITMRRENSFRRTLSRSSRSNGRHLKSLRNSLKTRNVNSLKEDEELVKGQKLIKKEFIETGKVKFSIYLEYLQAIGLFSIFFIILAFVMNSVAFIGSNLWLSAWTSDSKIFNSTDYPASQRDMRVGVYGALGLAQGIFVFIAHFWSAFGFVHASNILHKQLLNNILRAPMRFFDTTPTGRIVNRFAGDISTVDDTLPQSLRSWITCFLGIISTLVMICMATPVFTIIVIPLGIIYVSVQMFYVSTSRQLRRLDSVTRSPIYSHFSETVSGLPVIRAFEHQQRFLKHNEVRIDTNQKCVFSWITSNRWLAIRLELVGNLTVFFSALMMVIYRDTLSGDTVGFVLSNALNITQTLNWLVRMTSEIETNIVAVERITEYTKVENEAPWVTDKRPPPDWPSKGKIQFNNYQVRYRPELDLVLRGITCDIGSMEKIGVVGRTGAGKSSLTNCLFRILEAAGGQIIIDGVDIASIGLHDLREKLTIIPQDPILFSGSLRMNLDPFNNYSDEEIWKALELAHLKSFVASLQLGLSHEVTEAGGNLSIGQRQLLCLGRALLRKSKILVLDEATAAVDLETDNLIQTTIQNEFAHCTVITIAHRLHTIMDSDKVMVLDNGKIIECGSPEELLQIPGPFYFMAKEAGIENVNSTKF

## C[C@@H]1CCO[C@H]2Cn3cc(C(=O)NCc4ccc(F)cc4F)c(=O)c(O)c3C(=O)N12 [DOLUTEGRAVIR]
[1]
  IC50: 67 µM
[2]
  IC50: > 100 µM
[3]
  recovery at 3 µM: 76%
[4]
  Drug metabolism: metabolite_detected
[5]
  Drug metabolism: metabolite_detected
[6]
  Drug metabolism: metabolite_not_detected
[7]
  recovery at 3 µM: 85%
[8]
  IC50: > 100 µM
[9]
  Papp at 3 µM: 25.2 ×10⁻⁶ cm/s
[10]
  IC50: > 100 µM
[11]
  inhibition at 100 µM: 20%
[12]
  IC50: 1.9 µM
[13]
  inhibition at 100 µM: 20%
[14]
  inhibition (INH): 50%
[15]
  CLH: 2.7 µL/min/g
[16]
  IC50: > 100 µM
